According to ChEMBL document CHEMBL1201862, “PubChem BioAssay data set” (2004):
Active and inactive are the calls of the source.

Key:
[1] = viability of PTEN-deleted HCT116 cells – cell-based, HCT116 PTEN knockout, dose response (AID 1047); type: functional;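 further: HCT116 colon tumor cells with PTEN knocked out; cells exposed to compound for 60 hours before readout; potency for loss of cell viability measured by luminescence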
[2] = viability of HCT116 lacking mutant beta-catenin – cell-based, human colon tumor, dose response (AID 1045); type: functional;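 further: HCT116 colon tumor cells with beta catenin knocked out; cells exposed to compound for 60 hours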
[3] = THP-1 cell cytotoxicity, dose response, cytotoxicity control for non-replicating M. tuberculosis project (AID 489025); type: functional
[4] = target: T1, Caspase-3 (Homo sapiens, UniProt P42574); type: functional;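 further: Dose-response selectivity test against caspase-3 for candidate inhibitors of sentrin-specific proteases (SENPs)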
T1 sequence (P42574 whole entry): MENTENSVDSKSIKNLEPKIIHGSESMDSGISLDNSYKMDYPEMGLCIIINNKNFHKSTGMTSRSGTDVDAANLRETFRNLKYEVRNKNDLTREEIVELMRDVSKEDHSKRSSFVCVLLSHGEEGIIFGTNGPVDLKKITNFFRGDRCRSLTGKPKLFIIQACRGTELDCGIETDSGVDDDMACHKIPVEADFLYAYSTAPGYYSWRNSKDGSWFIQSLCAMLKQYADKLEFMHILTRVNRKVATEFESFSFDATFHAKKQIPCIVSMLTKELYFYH

[5] = Vero E6 cell cytotoxicity, dose response, cytotoxicity control for non-replicating M. tuberculosis project, secondary assay (AID 492998); type: functional, VeroE6; conditions: Vero C1008
[6] = target: T2, Sentrin-specific protease 7 (Homo sapiens, UniProt Q9BQF6); type: functional;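 further: Luminescence-based dose-response confirmation of ultra-high-throughput screening hits, measuring inhibition of SENP7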
T2 sequence (Q9BQF6 whole entry): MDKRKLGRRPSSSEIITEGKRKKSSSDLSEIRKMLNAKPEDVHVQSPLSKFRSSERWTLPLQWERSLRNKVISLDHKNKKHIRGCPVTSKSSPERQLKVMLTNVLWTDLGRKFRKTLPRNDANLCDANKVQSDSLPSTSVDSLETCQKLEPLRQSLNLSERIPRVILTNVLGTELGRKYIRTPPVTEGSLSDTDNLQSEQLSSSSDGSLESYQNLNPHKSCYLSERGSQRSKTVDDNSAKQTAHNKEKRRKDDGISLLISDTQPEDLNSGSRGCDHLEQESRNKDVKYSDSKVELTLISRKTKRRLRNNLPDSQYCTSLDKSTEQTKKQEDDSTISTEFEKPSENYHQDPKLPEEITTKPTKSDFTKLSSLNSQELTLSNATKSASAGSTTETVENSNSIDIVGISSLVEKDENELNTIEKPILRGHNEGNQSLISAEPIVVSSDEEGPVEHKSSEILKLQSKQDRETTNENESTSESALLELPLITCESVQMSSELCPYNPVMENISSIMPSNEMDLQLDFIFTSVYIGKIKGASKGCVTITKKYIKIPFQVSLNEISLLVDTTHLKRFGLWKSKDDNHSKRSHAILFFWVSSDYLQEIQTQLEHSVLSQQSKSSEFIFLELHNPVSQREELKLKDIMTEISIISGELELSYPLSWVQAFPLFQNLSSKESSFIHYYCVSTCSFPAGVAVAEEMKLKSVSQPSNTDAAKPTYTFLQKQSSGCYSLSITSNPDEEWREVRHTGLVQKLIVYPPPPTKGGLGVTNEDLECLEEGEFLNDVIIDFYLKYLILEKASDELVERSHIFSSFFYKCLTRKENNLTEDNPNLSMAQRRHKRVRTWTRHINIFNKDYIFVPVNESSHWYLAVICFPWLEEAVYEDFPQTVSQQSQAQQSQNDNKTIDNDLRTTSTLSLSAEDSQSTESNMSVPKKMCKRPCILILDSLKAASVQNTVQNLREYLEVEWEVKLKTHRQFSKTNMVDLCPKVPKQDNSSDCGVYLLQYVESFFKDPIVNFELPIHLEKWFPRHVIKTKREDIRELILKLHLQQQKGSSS

[7] = target: T3, Sentrin-specific protease 6 (Homo sapiens, UniProt Q9GZR1); type: functional;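 further: Luminescence-based dose-response confirmatory assay of SENP6 inhibition, following up an ultra-high-throughput screen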
T3 sequence (Q9GZR1 whole entry): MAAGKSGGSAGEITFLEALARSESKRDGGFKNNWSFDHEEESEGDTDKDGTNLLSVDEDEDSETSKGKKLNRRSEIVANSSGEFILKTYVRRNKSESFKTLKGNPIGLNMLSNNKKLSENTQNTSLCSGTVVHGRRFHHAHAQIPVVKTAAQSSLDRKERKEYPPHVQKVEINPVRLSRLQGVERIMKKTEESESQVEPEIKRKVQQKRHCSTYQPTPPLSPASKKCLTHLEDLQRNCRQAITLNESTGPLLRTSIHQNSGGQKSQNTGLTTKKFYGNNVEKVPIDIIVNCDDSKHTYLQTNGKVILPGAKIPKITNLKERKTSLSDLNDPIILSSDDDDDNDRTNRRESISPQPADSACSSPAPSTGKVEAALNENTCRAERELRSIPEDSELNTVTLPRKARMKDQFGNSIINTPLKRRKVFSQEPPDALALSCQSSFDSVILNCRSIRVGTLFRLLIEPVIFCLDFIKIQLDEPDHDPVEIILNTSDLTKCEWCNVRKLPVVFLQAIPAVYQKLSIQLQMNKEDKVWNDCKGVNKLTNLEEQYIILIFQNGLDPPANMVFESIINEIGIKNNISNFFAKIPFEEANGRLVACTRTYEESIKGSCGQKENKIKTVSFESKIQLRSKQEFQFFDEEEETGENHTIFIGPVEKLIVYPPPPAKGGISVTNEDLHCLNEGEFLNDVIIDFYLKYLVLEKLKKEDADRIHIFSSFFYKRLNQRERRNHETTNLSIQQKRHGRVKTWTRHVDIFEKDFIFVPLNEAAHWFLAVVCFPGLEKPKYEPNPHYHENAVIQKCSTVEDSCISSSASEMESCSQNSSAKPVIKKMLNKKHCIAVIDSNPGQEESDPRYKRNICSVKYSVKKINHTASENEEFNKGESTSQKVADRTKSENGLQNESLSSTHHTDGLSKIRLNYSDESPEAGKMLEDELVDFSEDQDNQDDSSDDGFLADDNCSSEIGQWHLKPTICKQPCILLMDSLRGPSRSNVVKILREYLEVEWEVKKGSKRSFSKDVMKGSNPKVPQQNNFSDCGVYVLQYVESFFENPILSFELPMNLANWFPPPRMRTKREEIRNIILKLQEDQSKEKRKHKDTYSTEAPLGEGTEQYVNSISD

[8] = target: T4, Sentrin-specific protease 8 (Homo sapiens, UniProt Q96LD8); type: functional;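 further: luminescence read-out of SENP8 inhibition, dose-response confirmation following an ultra-high-throughput screen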
T4 sequence (Q96LD8 whole entry): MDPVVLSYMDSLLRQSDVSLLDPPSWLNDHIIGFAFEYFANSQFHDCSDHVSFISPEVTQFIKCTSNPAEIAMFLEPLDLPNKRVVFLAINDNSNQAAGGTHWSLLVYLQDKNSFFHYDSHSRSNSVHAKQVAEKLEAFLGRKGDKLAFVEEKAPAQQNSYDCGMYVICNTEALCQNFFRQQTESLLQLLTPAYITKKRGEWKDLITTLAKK

[9] = system: INS1; test: INS-1E survival protection against cytokine death – cell-based, luminescence, retest, dose response (AID 449756); type: functional; conditions: Rattus norvegicus;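 further: cell death triggered by IL-1 beta plus TNF-alpha plus IFN-gamma mixture; protective hits raise ATP signal compared with cytokine alone wells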
[10] = Intein inhibitors as potential Tuberculosis drugs, a cytotoxicity screen. [Related pubchem assays (depositor defined):AID2221, AID2223, AID434968, AID435010, AID449749, AID449750, AID489010]; type: functional
[11] = target: T5, Replicative DNA helicase DnaB (Mycobacterium tuberculosis, UniProt P9WMR3); test: DnaB intein splicing inhibitors, dose response, biochemical, cell-free fluorescence (AID 449749); type: functional
T5 sequence (P9WMR3 whole entry): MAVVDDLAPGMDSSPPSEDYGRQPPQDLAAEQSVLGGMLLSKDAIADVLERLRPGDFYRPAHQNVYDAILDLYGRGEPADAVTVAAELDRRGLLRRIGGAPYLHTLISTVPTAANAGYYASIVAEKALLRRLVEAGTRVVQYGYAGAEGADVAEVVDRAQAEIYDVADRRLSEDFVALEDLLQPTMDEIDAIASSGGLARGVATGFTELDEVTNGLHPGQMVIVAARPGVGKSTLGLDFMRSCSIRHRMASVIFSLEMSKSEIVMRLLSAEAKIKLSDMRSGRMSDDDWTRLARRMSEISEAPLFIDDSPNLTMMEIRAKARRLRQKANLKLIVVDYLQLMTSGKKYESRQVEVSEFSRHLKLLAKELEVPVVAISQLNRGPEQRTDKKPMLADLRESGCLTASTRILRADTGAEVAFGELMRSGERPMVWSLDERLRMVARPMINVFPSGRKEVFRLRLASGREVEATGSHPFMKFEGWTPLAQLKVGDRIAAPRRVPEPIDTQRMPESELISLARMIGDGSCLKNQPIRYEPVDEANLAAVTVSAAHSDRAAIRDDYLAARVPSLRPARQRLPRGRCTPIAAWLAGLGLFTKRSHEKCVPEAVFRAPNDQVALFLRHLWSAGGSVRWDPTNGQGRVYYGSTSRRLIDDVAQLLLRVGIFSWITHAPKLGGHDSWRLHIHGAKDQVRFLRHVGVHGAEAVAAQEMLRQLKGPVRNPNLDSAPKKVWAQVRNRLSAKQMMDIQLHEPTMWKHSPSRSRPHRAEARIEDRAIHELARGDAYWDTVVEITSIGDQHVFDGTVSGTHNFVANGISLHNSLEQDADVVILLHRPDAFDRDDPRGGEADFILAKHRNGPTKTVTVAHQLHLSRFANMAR

[12] = target: T6, Protein RecA (Mycobacterium tuberculosis, UniProt P9WHJ3); test: Fluorescence Cell-Free Homogeneous Dose Retest to Identify Inhibitors of RecA-Intein Splicing Activity. [Related pubchem assays (depositor defined):AID2097, AID2223, AID489010, AID492950]; type: functional
T6 sequence (P9WHJ3 whole entry): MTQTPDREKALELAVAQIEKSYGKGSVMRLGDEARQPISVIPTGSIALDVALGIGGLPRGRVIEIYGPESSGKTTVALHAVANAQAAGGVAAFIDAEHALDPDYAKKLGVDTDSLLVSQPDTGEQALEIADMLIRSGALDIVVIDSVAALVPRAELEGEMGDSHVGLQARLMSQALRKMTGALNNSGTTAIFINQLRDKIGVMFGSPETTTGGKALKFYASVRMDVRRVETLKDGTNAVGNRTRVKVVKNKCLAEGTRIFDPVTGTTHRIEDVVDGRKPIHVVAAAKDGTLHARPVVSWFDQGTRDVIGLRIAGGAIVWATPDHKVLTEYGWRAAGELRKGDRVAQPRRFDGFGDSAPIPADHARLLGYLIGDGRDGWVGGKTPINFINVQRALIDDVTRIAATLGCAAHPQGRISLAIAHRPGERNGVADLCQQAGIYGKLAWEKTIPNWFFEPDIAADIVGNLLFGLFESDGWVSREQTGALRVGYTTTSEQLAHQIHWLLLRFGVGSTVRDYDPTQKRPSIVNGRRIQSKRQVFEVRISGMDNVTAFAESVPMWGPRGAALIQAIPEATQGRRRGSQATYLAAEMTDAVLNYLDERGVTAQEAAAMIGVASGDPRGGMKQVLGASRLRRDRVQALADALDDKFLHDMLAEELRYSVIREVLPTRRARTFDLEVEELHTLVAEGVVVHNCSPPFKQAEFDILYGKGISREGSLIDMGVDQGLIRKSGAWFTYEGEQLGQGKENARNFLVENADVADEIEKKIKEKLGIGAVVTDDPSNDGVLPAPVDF

[13] = target: T7, Fatty acid synthase (Homo sapiens, UniProt P49327); test: inhibition of human FAS-TE enzyme activity – biochemical, endpoint fluorescence intensity, uHTS hits, dose response (AID 624327); type: functional;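 further: fluorescence from hydrolysis of an O-methyl fluorescein acyl ester substrate by the enzyme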
T7 sequence (P49327 whole entry): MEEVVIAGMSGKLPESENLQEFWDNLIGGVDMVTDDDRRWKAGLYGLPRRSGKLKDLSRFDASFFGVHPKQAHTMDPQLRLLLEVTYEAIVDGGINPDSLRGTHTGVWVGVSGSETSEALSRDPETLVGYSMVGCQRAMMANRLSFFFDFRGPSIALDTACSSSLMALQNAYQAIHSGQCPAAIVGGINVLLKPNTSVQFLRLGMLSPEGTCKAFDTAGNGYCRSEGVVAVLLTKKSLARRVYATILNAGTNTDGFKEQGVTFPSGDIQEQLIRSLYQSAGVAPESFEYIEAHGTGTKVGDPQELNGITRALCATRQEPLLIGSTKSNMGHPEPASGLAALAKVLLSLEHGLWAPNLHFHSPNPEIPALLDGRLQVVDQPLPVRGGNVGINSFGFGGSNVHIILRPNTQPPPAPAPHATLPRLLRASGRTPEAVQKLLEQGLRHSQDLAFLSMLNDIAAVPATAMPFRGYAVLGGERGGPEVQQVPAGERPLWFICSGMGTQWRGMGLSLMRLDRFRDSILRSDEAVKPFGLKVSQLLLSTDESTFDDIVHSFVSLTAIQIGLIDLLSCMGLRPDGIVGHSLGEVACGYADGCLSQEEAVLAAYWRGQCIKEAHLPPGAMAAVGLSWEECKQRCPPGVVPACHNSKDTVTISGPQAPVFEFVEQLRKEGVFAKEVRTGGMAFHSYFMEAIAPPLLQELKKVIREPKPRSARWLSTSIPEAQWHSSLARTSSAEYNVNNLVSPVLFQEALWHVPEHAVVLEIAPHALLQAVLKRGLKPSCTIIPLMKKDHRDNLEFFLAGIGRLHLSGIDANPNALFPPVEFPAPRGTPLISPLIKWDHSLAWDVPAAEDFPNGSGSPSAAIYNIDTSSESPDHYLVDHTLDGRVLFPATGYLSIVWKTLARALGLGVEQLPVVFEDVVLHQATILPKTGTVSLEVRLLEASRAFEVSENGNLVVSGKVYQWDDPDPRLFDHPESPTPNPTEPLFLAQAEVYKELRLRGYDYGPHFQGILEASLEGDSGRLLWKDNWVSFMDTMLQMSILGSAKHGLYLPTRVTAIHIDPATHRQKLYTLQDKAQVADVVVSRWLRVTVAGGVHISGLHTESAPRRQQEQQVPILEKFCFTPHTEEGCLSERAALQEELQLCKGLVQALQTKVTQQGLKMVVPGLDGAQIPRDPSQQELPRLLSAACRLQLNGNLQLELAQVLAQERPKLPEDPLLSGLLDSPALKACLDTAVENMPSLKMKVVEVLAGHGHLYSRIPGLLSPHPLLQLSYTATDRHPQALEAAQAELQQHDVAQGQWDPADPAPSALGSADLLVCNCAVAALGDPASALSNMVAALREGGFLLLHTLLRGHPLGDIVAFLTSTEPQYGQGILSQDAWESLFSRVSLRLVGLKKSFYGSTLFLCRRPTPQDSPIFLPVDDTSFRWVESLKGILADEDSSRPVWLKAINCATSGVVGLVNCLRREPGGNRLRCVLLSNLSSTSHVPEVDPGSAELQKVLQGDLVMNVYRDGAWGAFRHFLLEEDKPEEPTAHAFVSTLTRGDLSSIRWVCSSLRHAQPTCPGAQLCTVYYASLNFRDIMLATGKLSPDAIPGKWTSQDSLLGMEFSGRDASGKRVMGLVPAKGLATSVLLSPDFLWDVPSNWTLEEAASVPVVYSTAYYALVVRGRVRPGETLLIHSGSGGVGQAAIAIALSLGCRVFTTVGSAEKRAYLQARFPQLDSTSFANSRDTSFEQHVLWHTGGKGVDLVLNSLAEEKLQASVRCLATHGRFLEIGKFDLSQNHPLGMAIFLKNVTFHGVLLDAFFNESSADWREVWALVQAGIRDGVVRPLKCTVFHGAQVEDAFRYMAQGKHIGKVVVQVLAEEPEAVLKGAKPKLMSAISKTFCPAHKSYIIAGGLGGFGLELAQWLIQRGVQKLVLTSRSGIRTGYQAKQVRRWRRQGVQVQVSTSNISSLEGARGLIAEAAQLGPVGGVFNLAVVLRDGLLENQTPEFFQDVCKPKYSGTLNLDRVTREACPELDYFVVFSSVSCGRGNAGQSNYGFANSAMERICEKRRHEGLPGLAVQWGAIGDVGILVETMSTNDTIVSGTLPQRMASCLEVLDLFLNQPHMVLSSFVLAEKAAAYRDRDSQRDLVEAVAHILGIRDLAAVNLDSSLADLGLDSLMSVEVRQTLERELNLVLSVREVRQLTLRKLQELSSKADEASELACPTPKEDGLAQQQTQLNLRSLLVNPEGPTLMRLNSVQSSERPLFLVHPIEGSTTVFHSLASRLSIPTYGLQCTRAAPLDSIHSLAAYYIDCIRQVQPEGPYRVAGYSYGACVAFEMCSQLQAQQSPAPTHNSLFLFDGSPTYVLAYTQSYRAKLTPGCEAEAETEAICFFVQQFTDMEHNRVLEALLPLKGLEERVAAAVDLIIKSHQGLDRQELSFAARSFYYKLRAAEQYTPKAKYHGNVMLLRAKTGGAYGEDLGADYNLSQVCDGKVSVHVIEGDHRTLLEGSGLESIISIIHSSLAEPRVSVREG

[14] = target: T7, Fatty acid synthase; test: inhibition of human FAS-TE enzyme activity – biochemical, kinetic fluorescence intensity, dose response (AID 624326); type: functional;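 further: rate of fluorescence rise from hydrolysis of a fluorogenic O-methyl fluorescein ester substrate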
[15] = decrease of insulin promoter-GFP reporter – imaging, high-content screening, mouse beta cells (AID 1628); type: functional; conditions: MIN6
[16] = MIN6 cell viability loss – mouse insulinoma, cytotoxicity control, dose response (AID 2122); type: functional;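 further: confirmatory high-throughput counterscreen run to flag cytotoxic compounds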
[17] = target: T8, Heat shock factor protein 1 (Mus musculus, UniProt P38532); test: enhancement of HSF1-driven luciferase signal – cell-based, NIH3T3, luminescence, dose retest, confirmation (AID 435004); type: functional;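 further: stress induced by proteasome inhibitor MG132 added 30 min after compound; luciferase reporter driven by HSF1 response element in NIH3T3 cells; actives raise luminescence as potentiators of the MG132 stress response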
T8 sequence (P38532 whole entry): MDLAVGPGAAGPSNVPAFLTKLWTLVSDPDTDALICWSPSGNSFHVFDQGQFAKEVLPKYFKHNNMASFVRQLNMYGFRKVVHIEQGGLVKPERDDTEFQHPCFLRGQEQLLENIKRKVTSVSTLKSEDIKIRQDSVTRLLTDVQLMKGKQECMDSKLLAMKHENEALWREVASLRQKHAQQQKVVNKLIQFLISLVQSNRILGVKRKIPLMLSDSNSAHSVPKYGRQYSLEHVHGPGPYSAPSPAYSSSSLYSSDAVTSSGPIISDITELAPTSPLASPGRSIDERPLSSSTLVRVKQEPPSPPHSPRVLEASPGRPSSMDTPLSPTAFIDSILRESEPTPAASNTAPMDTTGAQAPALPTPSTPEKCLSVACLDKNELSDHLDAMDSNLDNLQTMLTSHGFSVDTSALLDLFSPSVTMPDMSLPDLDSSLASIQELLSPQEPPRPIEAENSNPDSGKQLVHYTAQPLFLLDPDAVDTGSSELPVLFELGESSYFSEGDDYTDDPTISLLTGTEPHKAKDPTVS

Compound: O=[N+]([O-])c1ccc(-c2nc3cc([N+](=O)[O-])ccc3[nH]2)cc1
- EC50 [1]: 12 µM (active)
- EC50 [2]: 13.2 µM (active)
- CC50 [3]: 29.4 µM (active)
- IC50 [4]: 27.2 µM (active)
- CC50 [5]: 19.9 µM (active)
- IC50 [6]: 17 µM (active)
- IC50 [7]: 27.4 µM (active)
- IC50 [8]: 24.8 µM (active)
- AC50 [9]: 3.9 µM (active)

Compound: CC(CCc1ccccc1)NC(=O)COC(=O)c1cc(NS(=O)(=O)c2ccc(Cl)c([N+](=O)[O-])c2)ccc1O (stereo not given)
- CC50 [10]: 32.9 µM (active)
- AC50 [11]: 3.63 µM (active)
- EC50 [12]: 2.95 µM (active)
- IC50 [13]: 11.1 µM (active)
- IC50 [14]: 6.97 µM (active)

Compound: Cc1cc(C)nc(N=C(N)Nc2ccc(OCc3ccccc3)cc2)n1
- IC50 [15]: 0.988 µM (active)
- IC50 [16]: 1.22 µM (active)

Compound: Cc1[nH]n(-c2ccccc2)c(=O)c1C(C[N+](=O)[O-])c1ccc(F)cc1 (stereo not given)
- EC50 [17]: > 260 µM (inactive)
- CC50 [10]: > 40 µM (active)
- AC50 [11]: 0.729 µM (active)
- EC50 [12]: 4.2 µM (active)
